This is an account of results in patent publication US12590100B2, “Tetrahydro-spiroindoline-pyrrolopyrrole-triones inhibitors of the NRF2-β-TrCP interaction for use in the treatment of fatty liver disease” (Universidad Autonoma De Madrid, priority 2021, dated 2026).

Structures are written as SMILES.

The test system of this assay is peritoneal macrophages (Nrf2-4KI). As to the kind of experiment: Inflammatory response in LPS-stimulated peritoneal macrophages from Nrf2-4KI mice. It is filed as cell-based, mouse. As to conditions: Nrf2-4KI peritoneal macrophages, PHAR 10 μM 8 h. The protocol: FIG. 8. PHAR reduces inflammatory response in peritoneal macrophages originating from Nrf2^+/+ mice but not in peritoneal macrophages originating from LPS-stimulated Nrf2-4KI mice. Peritoneal macrophages originating from wild-type (WT) and serum-deprived NRF2 knock-in (Nrf2-4Ki) mice were pretreated with 10 μM of PHAR for 8 h. 0.1% DMSO was used as a vehicle. After that period of time, the cells were treated with 100 ng/ml of LPS for 4 h. A), representative immunoblots originating from both cell types of NRF2, HO1, pre-IL1β, COX2, NOS2, and GAPDH as a loading control. B), densitometric analysis of NRF2 and HO1 protein levels of the representative immunoblots of (A), expressed as a ratio of protein/GAPDH levels. The data is depicted as means±SEM (n=3). Statistical analysis was performed with two-way ANOVA followed by the Bonferroni test to compare inter-group differences. *p<0.05; **p<0.01; ***p<0.001 vs. LPS. C), Densitometric analysis of pre-IL1b, COX2, and NOS2 protein levels of the representative immunoblots of (A), expressed as a ratio of protein/GAPDH levels. The data is depicted as means±SEM (n=3). Statistical analysis was performed with two-way ANOVA followed by the Bonferroni test to compare inter-group differences. *p<0.05; **p<0.01; ***p<0.001 vs. LPS. D), the mRNA levels of Hmox1, Il1 β, Cox2, Nos2, Il6, and Tnfα were determined by means of qRT-PCR and normalized by means of average Gapdh, Thp, and β-actin. The data is depicted as mean±SEM (n=3). Statistical analysis was performed with two-way ANOVA followed by the Bonferroni test to check inter-group differences. *p<0.05; **p<0.01; ***p<0.001 vs. LPS.
As a complementary approach, peritoneal macrophages extracted from Nrf2^+/+ mice and knock-in mice generated in the laboratory having 4 serines substituted with alanines in critical positions for phosphorylation by priming kinase/priming kinases and by GSK-3β (Serines 335, 338, 342, and 347) were used. Both cell types were pretreated with DMSO or PHAR (10 μM, 8 h) and then stimulated with LPS (100 ng/ml, 4 h). […]

For `O=C1[C@@H]2[C@H](Cc3c[nH]c4ccccc34)N[C@]3(C(=O)Nc4ccc(Cl)cc43)[C@@H]2C(=O)N1c1ccc2c(c1)OCCO2` [PHAR], the HO-1 induction entry is listed as “the same HO-1 induction” and the NRF2 induction entry is “considerably lower”. For the same compound, the “protective effect against the inflammatory response” value (LPS 100 ng/ml 4 h) is listed as “lost in almost all the inflammatory markers analyzed”.
